Key:
Peronospora parasitica = assay: In vivo test Peronospora parasitica (downy mildew on cabbage), protective; details: evaluation 5 days after infection
Experimental: In vivo test Peronospora parasitica (downy mildew on cabbage) To prepare an appropriate active compound formulation, the active compound is mixed with acetone/Tween/DMSO and the mixture is diluted with water to the desired concentration. Cabbage plants are cultivated in 50/50 peat/pozzolan soil in small pots at 18-20° C. and sprayed at the cotyledon stage at the respective stated application rates to test for protective activity. Control plants were treated in the same manner, but using an aqueous solution without any active compounds. 24 hours after the spraying, the plants were sprayed with a spore suspension of Peronospora parasitica (50 000 spores/ml). The plants were placed in a cabin at 20° C. in a humid atmosphere for 5 days.

[1] = test system: Mycosphaerella graminicola; assay: In vivo test Mycosphaerella graminicola (wheat); details: Mycosphaerella graminicola on wheat, evaluation 21-28 days after inoculation
Experimental: Wheat plants (cultivar: (Scipion) are cultivated in 50/50 peat pozzolan substrate at 12° C. and sprayed at the 1-leaf stage with the active compound preparation as given in Example A. After 24 hours, the plants are sprayed with a spore suspension of Mycosphaerella graminicola (500 000 spores/ml).

Alternaria brassicae = assay: In vivo test Alternaria brassicae (salad radish); design: concentration or dose not given beside the values; details: Alternaria brassicae on salad radish, application rate not given, evaluation 6-7 days after inoculation
Experimental: Salad radish (cultivar Pernot) are cultivated in 50/50 peat pozzolan substrate at 18-20° C. and sprayed at the cotyledon stage with the active compound preparation given above. After 24 hours, the plants are sprayed with a spore suspension of Alternaria brassicae (40 000 spores/cm3). The inoculated plants are placed at 18° C. and in a humid atmosphere for 6-7 days. […] At an application rate of g/ha, the following efficacies are found for the following compounds.

Botrytis cinerea = assay: In vivo test Botrytis cinerea (gray mold on cucumbers); details: Botrytis cinerea on cucumber, evaluation 5-7 days after infection
Experimental: Cucumber plants (Vert petit de Paris) are cultivated in 50/50 peat pozzolan substrate at 20-25° C. and sprayed at the Z16 stage with the active compound preparation given in Example 1. After 24 hours, the upper sides of the leaves of the plants are sprayed with a spore suspension of Botrytis cinerea (150 000 spores/ml). The spores of a 15-day old culture are collected and suspended in a nutrient solution consisting of • 20 g/l of gelatin; • 50 g/l of D-fructose; • 2 g/l of NH4NO3; • 1 g/L of KH2PO4. The inoculated cucumber plants are placed at 15-11° C. (day/night) and at 80% relative atmospheric humidity for 5-7 days.

| SMILES | Activity [%] (efficacy) (Peronospora parasitica; application rate 500 g/ha) | Activity [%] (efficacy) ([1]; application rate 500 g/ha) | also measured |
| --- | --- | --- | --- |
| CC1(C(=O)NCC2CCCO2)CC(c2cc(Cl)cc(Cl)c2)=NO1 (mixture of isomers) [Example 6.470] | 71 | 100 | – |
| C#CC(C)NC(=O)C1(C)CC(c2cc(Cl)cc(Cl)c2)=NO1 (single isomer, unassigned) [Example 6.216] | 75 | – | Activity [%] (efficacy) (Alternaria brassicae): 82% |
| CCn1cc(NC(=O)C2(C)CC(c3cc(Cl)cc(Cl)c3)=NO2)c(C)n1 (centres unmarked) [Example 1.017] | – | 88 | – |
| COC(=O)Cc1cccc(NC(=O)C2(C)CC(c3cc(Cl)cc(Cl)c3)=NO2)c1 (centres unmarked) [Example 1.035] | – | 91 | Activity [%] (efficacy) (Botrytis cinerea; application rate 500 g/ha): 89% |
| CC1(C(=O)Nc2cccc(CC(=O)O)c2)CC(c2cc(Cl)cc(Cl)c2)=NO1 (centres unmarked) [Example 1.036] | – | 73 | – |
| CCOC(=O)Cc1ccc(NC(=O)C2(C)CC(c3cc(Cl)cc(Cl)c3)=NO2)cc1 (centres unmarked) [Example 1.057] | – | 91 | – |
| COC(=O)c1ccc(NC(=O)C2(C)CC(c3cc(Cl)cc(Cl)c3)=NO2)cc1 (centres unmarked) [Example 1.060] | – | – | Activity [%] (efficacy) (Botrytis cinerea; application rate 500 g/ha): 100% |
| CC1(C(=O)Nc2ccc(C(=O)O)cc2)CC(c2cc(Cl)cc(Cl)c2)=NO1 (centres unmarked) [Example 1.064] | 95 | 75 | Activity [%] (efficacy) (Botrytis cinerea; application rate 500 g/ha): 100% |
| Cc1nn(C)c(C)c1CNC(=O)C1(C)CC(c2cc(Cl)cc(Cl)c2)=NO1 (centres unmarked) [Example 1.108] | 100 | – | – |
| Cc1nn(C)cc1CNC(=O)C1(C)CC(c2cc(Cl)cc(Cl)c2)=NO1 (centres unmarked) [Example 1.116] | 100 | – | – |
| Cc1cc(CNC(=O)C2(C)CC(c3cc(F)cc(F)c3)=NO2)n(C)n1 (centres unmarked) [Example 1.120] | 99 | – | – |
| Cc1c(CNC(=O)C2(C)CC(c3cc(Cl)cc(Cl)c3)=NO2)cnn1C (centres unmarked) [Example 1.138] | 98 | 75 | – |
| CCn1cc(CNC(=O)C2(C)CC(c3cc(C)cc(Cl)c3)=NO2)c(C)n1 (centres unmarked) [Example 1.181] | 100 | 85 | Activity [%] (efficacy) (Botrytis cinerea; application rate 500 g/ha): 70% |
| CCn1cc(CNC(=O)C2(C)CC(c3cc(C(F)(F)F)cc(C(F)(F)F)c3)=NO2)c(C)n1 (centres unmarked) [Example 1.224] | 99 | 95 | – |
| Cn1nccc1CNC(=O)C1(C)CC(c2cc(Cl)cc(Cl)c2)=NO1 (centres unmarked) [Example 1.291] | – | – | Activity [%] (efficacy) (Peronospora parasitica; application rate 1200 g/ha): 88% |
| CC1(C(=O)NCc2ccccc2C(=O)O)CC(c2cc(Cl)cc(Cl)c2)=NO1 (centres unmarked) [Example 1.315] | – | 100 | – |
| CCn1cc(CNC(=O)C2(C)CC(c3cc(Cl)cc(Cl)c3)=NO2)c(Cl)n1 (centres unmarked) [Example 1.339] | 100 | 85 | – |
| CC(C)n1cc(CNC(=O)C2(C)CC(c3cc(F)cc(F)c3)=NO2)c(Cl)n1 (centres unmarked) [Example 1.340] | 97 | 88 | – |
| CC(C)n1cc(CNC(=O)C2(C)CC(c3cccc(F)c3)=NO2)c(Cl)n1 (centres unmarked) [Example 1.341] | 95 | – | – |

| SMILES | Activity [%] (efficacy) (Peronospora parasitica; application rate 500 g/ha) | Activity [%] (efficacy) ([1]; application rate 500 g/ha) | also measured |
| --- | --- | --- | --- |
| CC(C)n1cc(CNC(=O)C2(C)CC(c3cc(Cl)cc(Cl)c3)=NO2)c(Cl)n1 (centres unmarked) [Example 1.343] | 99 | 92 | – |
| CC1(C(=O)NCc2nc(C3CC3)no2)CC(c2cc(Cl)cc(Cl)c2)=NO1 (centres unmarked) [Example 1.352] | 83 | – | – |
| Cc1n[nH]cc1CNC(=O)C1(C)CC(c2cc(F)cc(F)c2)=NO1 (centres unmarked) [Example 1.363] | 71 | – | – |
| CC1(C(=O)NCc2nc(C(F)(F)F)cs2)CC(c2cc(Cl)cc(Cl)c2)=NO1 (centres unmarked) [Example 1.379] | 96 | – | – |
| Cc1cc(CNC(=O)C2(C)CC(c3cc(Cl)cc(Cl)c3)=NO2)no1 (centres unmarked) [Example 1.421] | – | 87 | – |
| CC1(C(=O)NCc2ccncc2)CC(c2cc(Cl)cc(Cl)c2)=NO1 (centres unmarked) [Example 1.458] | – | – | Activity [%] (efficacy) (Peronospora parasitica; application rate 1200 g/ha): 81% |
| CC1(C(=O)NCc2ncccn2)CC(c2cc(Cl)cc(Cl)c2)=NO1 (centres unmarked) [Example 1.459] | – | 100 | – |
| CC1(C(=O)NCCc2ccccn2)CC(c2cc(Cl)cc(Cl)c2)=NO1 (centres unmarked) [Example 1.676] | 85 | – | – |
| CC1(C(=O)NCCCn2cccn2)CC(c2cc(Cl)cc(Cl)c2)=NO1 (centres unmarked) [Example 1.903] | 85 | 97 | – |
| CCC1(C(=O)Nc2cc(C)nn2C)CC(c2cc(Cl)cc(Cl)c2)=NO1 (centres unmarked) [Example 2.003] | – | – | Activity [%] (efficacy) (Peronospora parasitica; application rate 1200 g/ha): 90% |
| CCn1cc(CNC(=O)C2(CC)CC(c3cc(Cl)cc(Cl)c3)=NO2)c(C)n1 (centres unmarked) [Example 2.163] | 100 | 96 | – |
| CCCn1cc(CNC(=O)C2(CC)CC(c3cc(Cl)cc(Cl)c3)=NO2)c(C)n1 (centres unmarked) [Example 2.257] | 99 | 79 | – |
| CCn1cc(CNC(=O)C2(C(F)(F)F)CC(c3cc(Cl)cc(Cl)c3)=NO2)c(C)n1 (centres unmarked) [Example 3.161] | 100 | – | – |
| CCn1cc(CNC(=O)C2(C(F)(F)F)CC(c3ccc(F)c(Cl)c3)=NO2)c(C)n1 (centres unmarked) [Example 3.170] | 94 | – | – |
| CCn1cc(CNC(=O)C2(COC)CC(c3cc(Cl)cc(Cl)c3)=NO2)c(C)n1 (centres unmarked) [Example 5.029] | 87 | – | – |
| CNC(=O)C1(C)CC(c2cc(Br)cc(Br)c2)=NO1 (centres unmarked) [Example 6.022] | – | 98 | – |
| CC1(C(=O)NC2CC2)CC(c2cc(Cl)cc(Cl)c2)=NO1 (centres unmarked) [Example 6.054] | – | 100 | Activity [%] (efficacy) (Alternaria brassicae): 94% |
| CC1(C(=O)NC2CC2)CC(c2cc(Cl)cc(Br)c2)=NO1 (centres unmarked) [Example 6.064] | – | 100 | Activity [%] (efficacy) (Alternaria brassicae): 91% |
| Cc1cc(Cl)cc(C2=NOC(C)(C(=O)NC3CC3)C2)c1 (centres unmarked) [Example 6.072] | – | 98 | – |

| SMILES | Activity [%] (efficacy) (Peronospora parasitica; application rate 500 g/ha) | Activity [%] (efficacy) ([1]; application rate 500 g/ha) | also measured |
| --- | --- | --- | --- |
| COCC#CC(C)(C)NC(=O)C1(C)CC(c2cc(Cl)cc(Cl)c2)=NO1 (centres unmarked) [Example 6.115] | 100 | – | – |
| CC(C)NC(=O)C1(C)CC(c2cc(Br)cc(C(F)(F)F)c2)=NO1 (centres unmarked) [Example 6.184] | – | 100 | – |
| CC(C)NC(=O)C1(C)CC(c2cc(F)cc(Cl)c2)=NO1 (centres unmarked) [Example 6.190] | – | – | Activity [%] (efficacy) (Peronospora parasitica; application rate 1200 g/ha): 100% |
| COc1cc(Cl)cc(C2=NOC(C)(C(=O)NC(C)C)C2)c1 (centres unmarked) [Example 6.191] | – | – | Activity [%] (efficacy) (Botrytis cinerea; application rate 1200 g/ha): 100% |
| Cc1cc(Cl)cc(C2=NOC(C)(C(=O)NC(C)C)C2)c1 (centres unmarked) [Example 6.192] | 96 | 97 | – |
| CC1(C(=O)NCC(F)(F)F)CC(c2cc(Cl)cc(Cl)c2)=NO1 (centres unmarked) [Example 6.377] | – | 100 | Activity [%] (efficacy) (Alternaria brassicae): 77% |
| Cc1cc(Cl)cc(C2=NOC(C)(C(=O)NCC(F)(F)F)C2)c1 (centres unmarked) [Example 6.386] | – | 100 | – |
| CCNC(=O)C1(C)CC(c2cc(C)cc(Cl)c2)=NO1 (centres unmarked) [Example 6.412] | – | 100 | – |
| CC1(C(=O)NCC2CCCCC2)CC(c2cc(Cl)cc(Cl)c2)=NO1 (centres unmarked) [Example 6.430] | – | 81 | – |
| CCOP(=O)(CNC(=O)C1(C)CC(c2cc(Cl)cc(Cl)c2)=NO1)OCC (centres unmarked) [Example 6.433] | 100 | – | – |
| CCOC(=O)C(C)CNC(=O)C1(C)CC(c2cc(Cl)cc(Cl)c2)=NO1 (centres unmarked) [Example 6.480] | – | 88 | – |
| CCOC(=O)CCNC(=O)C1(C)CC(c2cc(Cl)cc(Cl)c2)=NO1 (centres unmarked) [Example 6.566] | – | 98 | – |
| CC(C)(C)OC(=O)CCNC(=O)C1(C)CC(c2cc(Cl)cc(Cl)c2)=NO1 (centres unmarked) [Example 6.656] | 92 | 98 | – |
| CCOCCCNC(=O)C1(C)CC(c2cc(Cl)cc(Cl)c2)=NO1 (centres unmarked) [Example 6.681] | – | – | Activity [%] (efficacy) (Peronospora parasitica; application rate 1200 g/ha): 97% |
| CCC1(C(=O)NC(C)C)CC(c2cc(Cl)cc(Cl)c2)=NO1 (centres unmarked) [Example 7.161] | – | – | Activity [%] (efficacy) (Botrytis cinerea; application rate 1200 g/ha): 100%; Activity [%] (efficacy) (Peronospora parasitica; application rate 1200 g/ha): 97%; Activity [%] (efficacy) ([1]; application rate 1200 g/ha): 85% |
| CCC1(C(=O)NCC(F)(F)F)CC(c2cc(Cl)cc(Cl)c2)=NO1 (centres unmarked) [Example 7.359] | – | 100 | Activity [%] (efficacy) (Alternaria brassicae): 86% |
| CNC(=O)C1(C(F)(F)F)CC(c2cc(Cl)cc(Cl)c2)=NO1 (centres unmarked) [Example 8.025] | 100 | – | – |
| O=C(NC1CC1)C1(C(F)(F)F)CC(c2cc(Cl)cc(Cl)c2)=NO1 (centres unmarked) [Example 8.052] | – | – | Activity [%] (efficacy) (Peronospora parasitica; application rate 1200 g/ha): 100% |
| CC(C)NC(=O)C1(C2CC2)CC(c2cc(Cl)cc(Cl)c2)=NO1 (centres unmarked) [Example 10.032] | – | – | Activity [%] (efficacy) (Peronospora parasitica; application rate 1200 g/ha): 96% |

— patent publication US9078442B2, “Herbicidally and fungicidally active 3-phenylisoxazoline-5-carboxamides and 3-phenylisoxazoline-5-thioamides” (BAYER INTELLECTUAL PROPERTY GMBH, priority 2011, dated 2015)
